In patent US7939712B2, “Method to alleviate abiotic stress in plants by expression of mitochondrial-targeted purple acid phosphatase” (The Chinese University of Hong Kong, priority 2006, dated 2011):
Marks after values point to notes of the source that are not given here.

System: BY-2 cells
Experiment: Analysis of mitochondria integrity (Rh123 staining) under NaCl or PEG stress
Assay type: cell-based, tobacco
Conditions: wild type BY-2 + 10 mM ascorbic acid
Description: Cells were treated with 200 mM NaCl for 1 h or 2% PEG for 1 h before staining with 10 μg/ml rhodamine-123 (Rh123) (R302, Molecular Probes) for 1 h. The signal of Rh123 was excited by green HeNe laser at 543 nm. The filter set HQ590/70 was used and confocal images were collected by the Bio-Rad Radiance 2100 system. 10-25 cells were counted for each sample for statistical analysis.
Transgenic BY-2 cell lines prepared as in Example 1 were cultured to express the GmPAP3 protein and subjected to treatment with sodium chloride or polyethylene glycol (PEG, osmotic stress) as explained above and in the description of the results as shown in FIGS. 3A-3L. The results on mitochondrial integrity were compared with the effect of the presence of ascorbic acid. The results are shown in the table below which summarizes the data in FIGS. 3A-3L. The data are the results of counting 10-25 cells and the experiment repeated 3 times. The percentage was presented as the mean value of 3 experiments±SD, where ** denotes statistical difference (p<0.01) from the wild type BY-2 cells under the same treatment, based on one-way ANOVA followed by the Turkey test.
Wild type (WT) BY-2 cells (FIGS. 3A-3C) and GmPAP3 transgenic BY-2 cell lines #20 and #29 (FIGS. 3G-3I and FIGS. 3J-3L, respectively) without ascorbic acid supplements and wild type BY-2 cells with 10 mM ascorbic acid supplements (+Asc) (FIGS. 3D-3F) were pre-treated in a cell culture medium without stress (FIGS. 3A, 3D, 3G and 3J), with 200 mM NaCl for 1 hr (FIGS. 3B, 3E, 3H and 3K), or with 2% PEG for 1 h (FIGS. 3C, 3F, 3I, 3L) before staining with 10 μg/mL Rh123 for another hour. The signal of Rh123 was observed using a confocal laser scanning microscope (see materials and methods). 10-25 cells were counted for each line. Scale bar=50 μm.

## O=C1O[C@H]([C@@H](O)CO)C(O)=C1O [ascorbic acid]
200 mM NaCl 1 h, mean of 3 experiments ± SD
  % cells with intact mitochondria, NaCl: 86.20 ± 3.3** %
2% PEG 1 h, mean of 3 experiments ± SD
  % cells with intact mitochondria, PEG: 82.16 ± 3.7** %
Medium without stress
  % cells with intact mitochondria, Control: 100%
